# Calls of active or inactive are those of the source. The rule behind the calls is not given here.
# What was measured:
# [1] = target: RAC-alpha serine/threonine-protein kinase (Homo sapiens, UniProt P31749); assay: Inhibition of recombinant AKT1 (unknown origin)
# [2] = Inhibition of recombinant CDK2/CYCA (unknown origin); design: species or system Homo sapiens
# [3] = target: Cyclin-dependent kinase 4/cyclin D1 (Homo sapiens, UniProt P11802); assay: Inhibition of recombinant CDK4/CYCD1 (unknown origin); type: protein-complex assay
# Chain of Cyclin-dependent kinase 4/cyclin D1 (P11802 whole entry): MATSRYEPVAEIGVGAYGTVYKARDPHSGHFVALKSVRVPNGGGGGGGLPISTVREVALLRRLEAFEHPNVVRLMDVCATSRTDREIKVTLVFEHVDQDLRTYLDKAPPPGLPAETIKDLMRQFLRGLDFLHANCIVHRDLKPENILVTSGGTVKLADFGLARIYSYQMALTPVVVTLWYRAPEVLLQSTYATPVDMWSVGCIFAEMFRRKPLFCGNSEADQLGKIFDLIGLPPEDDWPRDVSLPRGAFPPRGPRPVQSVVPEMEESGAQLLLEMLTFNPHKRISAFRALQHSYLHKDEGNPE
# Chain of Cyclin-dependent kinase 4/cyclin D1 (P24385 whole entry, further chain): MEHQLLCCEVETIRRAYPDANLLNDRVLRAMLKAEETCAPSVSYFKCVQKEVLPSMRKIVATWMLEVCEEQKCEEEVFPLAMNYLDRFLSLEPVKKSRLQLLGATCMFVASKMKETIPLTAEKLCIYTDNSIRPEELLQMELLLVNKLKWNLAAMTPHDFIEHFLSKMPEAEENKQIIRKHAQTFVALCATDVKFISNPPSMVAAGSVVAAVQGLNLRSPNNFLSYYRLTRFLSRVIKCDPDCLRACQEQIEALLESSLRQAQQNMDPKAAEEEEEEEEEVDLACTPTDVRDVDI
# [4] = target: Casein kinase 2 (Homo sapiens, UniProt P67870+P68400+P19784+Q8NEV1); assay: Inhibition of recombinant CK2 (unknown origin); type: protein assay
# [5] = target: Eukaryotic elongation factor 2 kinase (Homo sapiens, UniProt O00418); assay: Inhibition of recombinant EEF2K (unknown origin)
# [6] = target: Receptor-type tyrosine-protein kinase FLT3 (Homo sapiens, UniProt P36888); assay: Inhibition of recombinant FLT3 (unknown origin)
# [7] = target: Tyrosine-protein kinase JAK1 (Homo sapiens, UniProt P23458); assay: Inhibition of recombinant JAK1 (unknown origin)
# Chain of Tyrosine-protein kinase JAK1 (P23458 whole entry): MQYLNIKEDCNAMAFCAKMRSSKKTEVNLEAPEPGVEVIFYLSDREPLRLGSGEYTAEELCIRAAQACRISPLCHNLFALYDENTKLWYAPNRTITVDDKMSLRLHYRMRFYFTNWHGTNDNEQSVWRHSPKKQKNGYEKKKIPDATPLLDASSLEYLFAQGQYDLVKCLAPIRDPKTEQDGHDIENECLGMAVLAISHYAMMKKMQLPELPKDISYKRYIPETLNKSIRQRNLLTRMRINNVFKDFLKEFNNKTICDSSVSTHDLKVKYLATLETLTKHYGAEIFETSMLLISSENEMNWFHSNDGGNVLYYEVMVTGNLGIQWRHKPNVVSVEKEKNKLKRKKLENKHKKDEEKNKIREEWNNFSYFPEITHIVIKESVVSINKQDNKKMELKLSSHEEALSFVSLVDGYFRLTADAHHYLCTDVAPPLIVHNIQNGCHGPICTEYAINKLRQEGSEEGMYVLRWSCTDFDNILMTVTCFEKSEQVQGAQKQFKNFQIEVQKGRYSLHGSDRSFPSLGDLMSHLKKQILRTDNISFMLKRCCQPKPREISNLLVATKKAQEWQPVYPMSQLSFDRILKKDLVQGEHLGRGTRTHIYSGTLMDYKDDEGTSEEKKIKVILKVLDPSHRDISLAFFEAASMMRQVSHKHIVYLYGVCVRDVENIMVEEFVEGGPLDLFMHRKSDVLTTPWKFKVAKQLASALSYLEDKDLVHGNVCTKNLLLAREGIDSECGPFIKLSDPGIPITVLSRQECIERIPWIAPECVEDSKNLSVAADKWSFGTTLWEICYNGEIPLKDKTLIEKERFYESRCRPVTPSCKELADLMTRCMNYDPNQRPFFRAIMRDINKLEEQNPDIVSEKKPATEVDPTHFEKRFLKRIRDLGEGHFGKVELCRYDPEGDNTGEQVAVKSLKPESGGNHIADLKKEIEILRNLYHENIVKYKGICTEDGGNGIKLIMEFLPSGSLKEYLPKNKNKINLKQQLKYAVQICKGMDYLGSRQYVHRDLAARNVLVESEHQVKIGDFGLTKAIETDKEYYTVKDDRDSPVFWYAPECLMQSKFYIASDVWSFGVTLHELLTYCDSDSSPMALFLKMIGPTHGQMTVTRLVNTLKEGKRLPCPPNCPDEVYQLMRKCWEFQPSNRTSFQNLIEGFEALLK
# [8] = target: MAP kinase-interacting serine/threonine-protein kinase 2 (Homo sapiens, UniProt Q9HBH9); assay: Inhibition of recombinant MNK2 (unknown origin)
# [9] = target: Eukaryotic translation initiation factor 2-alpha kinase 3 (Homo sapiens, UniProt Q9NZJ5); assay: Inhibition of recombinant PERK (unknown origin)
# Chain of Eukaryotic translation initiation factor 2-alpha kinase 3 (Q9NZJ5 whole entry): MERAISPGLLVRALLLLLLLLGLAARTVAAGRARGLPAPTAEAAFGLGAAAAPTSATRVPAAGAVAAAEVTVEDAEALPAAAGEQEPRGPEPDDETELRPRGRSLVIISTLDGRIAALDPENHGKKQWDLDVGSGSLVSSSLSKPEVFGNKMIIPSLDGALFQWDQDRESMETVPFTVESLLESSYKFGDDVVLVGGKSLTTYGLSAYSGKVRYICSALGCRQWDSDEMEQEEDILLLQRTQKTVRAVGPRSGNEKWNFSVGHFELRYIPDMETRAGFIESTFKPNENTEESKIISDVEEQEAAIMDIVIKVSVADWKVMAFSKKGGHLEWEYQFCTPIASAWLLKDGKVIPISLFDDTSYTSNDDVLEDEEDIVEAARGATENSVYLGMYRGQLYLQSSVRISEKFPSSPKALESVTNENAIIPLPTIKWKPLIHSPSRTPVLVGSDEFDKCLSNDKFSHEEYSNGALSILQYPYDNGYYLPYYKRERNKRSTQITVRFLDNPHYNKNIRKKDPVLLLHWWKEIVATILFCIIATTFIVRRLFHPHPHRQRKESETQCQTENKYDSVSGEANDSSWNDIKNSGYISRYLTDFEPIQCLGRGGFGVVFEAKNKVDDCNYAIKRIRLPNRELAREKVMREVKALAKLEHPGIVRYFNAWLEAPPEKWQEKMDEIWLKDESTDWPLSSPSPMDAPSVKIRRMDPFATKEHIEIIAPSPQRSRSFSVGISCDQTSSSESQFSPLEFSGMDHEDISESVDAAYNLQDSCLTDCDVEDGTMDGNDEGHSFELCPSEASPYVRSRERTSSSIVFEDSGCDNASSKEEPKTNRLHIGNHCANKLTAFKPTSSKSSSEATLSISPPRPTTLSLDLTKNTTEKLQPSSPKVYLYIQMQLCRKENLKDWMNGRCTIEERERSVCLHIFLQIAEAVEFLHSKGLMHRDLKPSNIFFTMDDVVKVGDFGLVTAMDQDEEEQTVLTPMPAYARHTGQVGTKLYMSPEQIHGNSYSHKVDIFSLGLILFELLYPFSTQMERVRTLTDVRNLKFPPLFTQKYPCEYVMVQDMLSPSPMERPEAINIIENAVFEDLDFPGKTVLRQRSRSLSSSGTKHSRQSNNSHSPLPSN
# [10] = target: Vascular endothelial growth factor receptor 2 (Homo sapiens, UniProt P35968); assay: Inhibition of recombinant VEGFR2 (unknown origin)
# Chain of Vascular endothelial growth factor receptor 2 (P35968 whole entry): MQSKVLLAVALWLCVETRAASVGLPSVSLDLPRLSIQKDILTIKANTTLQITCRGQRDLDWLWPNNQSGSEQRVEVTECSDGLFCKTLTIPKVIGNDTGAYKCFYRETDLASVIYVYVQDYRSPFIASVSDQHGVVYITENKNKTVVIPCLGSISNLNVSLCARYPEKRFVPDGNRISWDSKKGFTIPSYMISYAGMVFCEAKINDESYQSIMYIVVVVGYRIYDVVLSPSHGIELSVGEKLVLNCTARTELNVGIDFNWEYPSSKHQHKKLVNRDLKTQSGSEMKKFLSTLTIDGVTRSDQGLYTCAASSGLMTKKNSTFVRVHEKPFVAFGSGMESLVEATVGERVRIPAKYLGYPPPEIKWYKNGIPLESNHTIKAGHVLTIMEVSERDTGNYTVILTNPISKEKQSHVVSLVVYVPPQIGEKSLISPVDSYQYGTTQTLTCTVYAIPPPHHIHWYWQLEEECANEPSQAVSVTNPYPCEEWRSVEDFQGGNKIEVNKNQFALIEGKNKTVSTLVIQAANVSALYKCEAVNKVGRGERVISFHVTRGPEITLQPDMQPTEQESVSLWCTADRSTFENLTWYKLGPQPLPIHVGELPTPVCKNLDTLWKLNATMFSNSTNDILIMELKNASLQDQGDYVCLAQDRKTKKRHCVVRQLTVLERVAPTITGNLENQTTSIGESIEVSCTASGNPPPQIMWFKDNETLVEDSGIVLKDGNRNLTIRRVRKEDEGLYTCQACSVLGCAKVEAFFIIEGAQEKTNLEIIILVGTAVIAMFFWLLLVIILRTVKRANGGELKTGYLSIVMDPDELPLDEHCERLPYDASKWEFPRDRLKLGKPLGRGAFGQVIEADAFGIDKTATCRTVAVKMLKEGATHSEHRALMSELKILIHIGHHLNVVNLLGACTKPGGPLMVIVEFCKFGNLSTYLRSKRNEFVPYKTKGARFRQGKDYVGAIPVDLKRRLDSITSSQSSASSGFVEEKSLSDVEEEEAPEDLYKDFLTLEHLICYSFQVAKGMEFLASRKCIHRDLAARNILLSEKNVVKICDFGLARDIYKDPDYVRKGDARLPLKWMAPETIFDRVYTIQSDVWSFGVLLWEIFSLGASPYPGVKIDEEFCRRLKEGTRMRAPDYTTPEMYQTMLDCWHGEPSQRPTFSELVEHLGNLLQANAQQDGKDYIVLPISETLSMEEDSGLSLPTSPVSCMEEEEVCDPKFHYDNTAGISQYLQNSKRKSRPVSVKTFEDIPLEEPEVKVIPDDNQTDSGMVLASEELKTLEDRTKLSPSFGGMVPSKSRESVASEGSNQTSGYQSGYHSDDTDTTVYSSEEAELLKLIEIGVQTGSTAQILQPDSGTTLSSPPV
# [11] = target: Vascular endothelial growth factor receptor 3 (Homo sapiens, UniProt P35916); assay: Inhibition of recombinant VEGFR3 (unknown origin)
# [12] = target: Tyrosine-protein kinase ZAP-70 (Homo sapiens, UniProt P43403); assay: Inhibition of recombinant ZAP70 (unknown origin)
# Chain of Tyrosine-protein kinase ZAP-70 (P43403 whole entry): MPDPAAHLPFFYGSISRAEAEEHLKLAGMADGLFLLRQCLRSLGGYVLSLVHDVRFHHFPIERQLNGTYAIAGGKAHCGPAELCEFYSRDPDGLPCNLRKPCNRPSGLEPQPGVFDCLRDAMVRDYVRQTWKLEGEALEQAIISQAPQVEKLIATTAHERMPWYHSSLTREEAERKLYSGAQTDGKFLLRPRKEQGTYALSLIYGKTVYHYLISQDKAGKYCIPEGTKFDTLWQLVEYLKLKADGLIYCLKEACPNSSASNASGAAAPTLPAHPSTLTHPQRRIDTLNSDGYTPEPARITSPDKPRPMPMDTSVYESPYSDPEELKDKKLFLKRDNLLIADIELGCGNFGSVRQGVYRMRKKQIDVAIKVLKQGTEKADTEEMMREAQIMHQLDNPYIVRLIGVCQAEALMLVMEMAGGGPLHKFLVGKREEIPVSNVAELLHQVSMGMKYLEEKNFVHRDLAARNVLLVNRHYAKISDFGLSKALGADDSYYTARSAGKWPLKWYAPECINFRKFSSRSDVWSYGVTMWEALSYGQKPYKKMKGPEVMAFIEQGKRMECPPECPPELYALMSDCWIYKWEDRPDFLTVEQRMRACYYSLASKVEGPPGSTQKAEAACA
# [13] = test system: SNB-75; assay: Antiproliferative activity against human SNB-75 cells assessed as inhibition of cell growth incubated for 72 hrs by celltiter-glo assay; type: functional, cell-based; settings: SNB-75, 72 h
# [14] = test system: C-33-A; assay: Antiproliferative activity against human C-33-A cells assessed as inhibition of cell growth incubated for 72 hrs by celltiter-glo assay; type: functional, cell-based
# [15] = test system: HeLa; assay: Antiproliferative activity against human HeLa cells assessed as inhibition of cell growth incubated for 72 hrs by celltiter-glo assay; type: functional, cell-based
# [16] = test system: HCT-116; assay: Antiproliferative activity against human HCT-116 cells assessed as inhibition of cell growth incubated for 72 hrs by celltiter-glo assay; type: functional, cell-based; settings: HCT-116, 72 h
# [17] = test system: A-431; assay: Antiproliferative activity against human A-431 cells assessed as inhibition of cell growth incubated for 72 hrs by celltiter-glo assay; type: functional, cell-based; settings: A-431, 72 h
# [18] = test system: MOLM-13; assay: Antiproliferative activity against human MOLM-13 cells assessed as inhibition of cell growth incubated for 72 hrs by celltiter-glo assay; type: functional, cell-based; settings: MOLM-13, 72 h
# [19] = Antiproliferative activity against human PL21 cells assessed as inhibition of cell growth incubated for 72 hrs by celltiter-glo assay; type: functional, cell-based; settings: PL-21, 72 h
# [20] = test system: KARPAS-299; assay: Antiproliferative activity against human KARPAS-299 cells assessed as inhibition of cell growth incubated for 72 hrs by celltiter-glo assay; type: functional, cell-based; settings: KARPAS-299, 72 h
# [21] = test system: Calu-3; assay: Antiproliferative activity against human Calu-3 cells assessed as inhibition of cell growth incubated for 72 hrs by celltiter-glo assay; type: functional, cell-based; settings: Calu-3, 72 h
# [22] = test system: RERF-LC-AI; assay: Antiproliferative activity against human RERF-LC-AI cells assessed as inhibition of cell growth incubated for 72 hrs by celltiter-glo assay; type: functional, cell-based
# [23] = test system: SUD4; assay: Antiproliferative activity against human SU-DHL-4 cells assessed as inhibition of cell growth incubated for 72 hrs by celltiter-glo assay; type: functional, cell-based; settings: SU-DHL-4, 72 h
# [24] = test system: Granta-519; assay: Antiproliferative activity against human Granta-519 cells assessed as inhibition of cell growth incubated for 72 hrs by celltiter-glo assay; type: functional, cell-based; settings: Granta-519, 72 h
# [25] = test system: RPMI-8226; assay: Antiproliferative activity against human RPMI-8226 cells assessed as inhibition of cell growth incubated for 72 hrs by celltiter-glo assay; type: functional, cell-based; settings: RPMI-8226, 72 h
# [26] = test system: L-363; assay: Antiproliferative activity against human L-363 cells assessed as inhibition of cell growth incubated for 72 hrs by celltiter-glo assay; type: functional, cell-based; settings: L-363, 72 h
# [27] = test system: NHDF; assay: Antiproliferative activity against human NHDF cells assessed as inhibition of cell growth incubated for 72 hrs by celltiter-glo assay; type: functional, cell-based
# [28] = test system: LNCaP; assay: Antiproliferative activity against human LNCaP cells assessed as inhibition of cell growth incubated for 72 hrs by celltiter-glo assay; type: functional, cell-based
# [29] = test system: ACHN; assay: Antiproliferative activity against human ACHN cells assessed as inhibition of cell growth incubated for 72 hrs by celltiter-glo assay; type: functional, cell-based
# [30] = test system: TK-10; assay: Antiproliferative activity against human TK-10 cells assessed as inhibition of cell growth incubated for 72 hrs by celltiter-glo assay; type: functional, cell-based; settings: TK-10, 72 h
# [31] = test system: UO-31; assay: Antiproliferative activity against human UO-31 cells assessed as inhibition of cell growth incubated for 72 hrs by celltiter-glo assay; type: functional, cell-based; settings: UO-31, 72 h
# [32] = test system: RO82-W-1; assay: Antiproliferative activity against human RO82-W-1 cells assessed as inhibition of cell growth incubated for 72 hrs by celltiter-glo assay; type: functional, cell-based; settings: RO82-W-1, 72 h
# [33] = test system: HeLa; assay: Induction of mitotic arrest in human nocodazole-arrested HeLa cells assessed as delocalization of MAD2 at 1 micromol/L in presence of MG132; type: functional, cell-based; settings: dose 1.0 µmol/L
# [34] = test system: HeLa; assay: Effect on CENPB level in human nocodazole-arrested HeLa cells at 1 micromol/L in presence of MG132; type: functional, cell-based; settings: dose 1.0 µmol/L
# [35] = test system: HeLa; assay: Effect on HEC1 level in human nocodazole-arrested HeLa cells at 1 micromol/L in presence of MG132; type: functional, cell-based; settings: dose 1.0 µmol/L
# [36] = test system: HeLa; assay: Inhibition of cdc20-MAD2 protein-protein interaction in human nocodazole arrested HeLa cells by Coimmunoprecipitation analysis; type: cell-based
# [37] = test system: U2OS; assay: Induction of mitotic arrest in human U2OS cells expressing YFP alpha-tubulin assessed as chromosome misalignment in anaphase incubated for 1 hr by DAPI staining based confocal microscopic analysis; type: functional, cell-based
# [38] = test system: HCT-116; assay: Cell cycle arrest in human HCT-116 cells assessed as accumulation of cells at G2/M phase at 0.2 to 1 micromol/L incubated for 48 hrs by FACS/PI staining based flow cytometric analysis; type: functional; settings: dose 0.2-1 µmol/L
# [39] = test system: A2780; assay: Cell cycle arrest in human A2780 cells assessed as accumulation of cells at sub-G1 phase at 0.2 to 1 micromol/L incubated for 72 hrs by FACS/PI staining based flow cytometric analysis; type: functional; settings: dose 0.2-1 µmol/L
# [40] = test system: HCT-116; assay: Induction of apoptosis in human HCT-116 cells at 1 micromol/L incubated for 24 to 72 hrs by FACS/PI staining based flow cytometric analysis; type: functional; settings: dose 1 µmol/L; time 24-72 hrs; at 1 µM
# [41] = Cmax in Athymic nu-nu mouse at 10 mg/kg, po measured upto 24 hrs by LC-MS/MS analysis; type: ADME, organism-based; settings: in vivo
# [42] = target: Cyclin-dependent kinase 5/CDK5 activator 1 (Homo sapiens, UniProt Q00535)
# Description: Inhibition of recombinant CDK5/P25 (unknown origin)
structure (smiles),measurement,setting,value
CCc1cccc(CC)c1NC(=O)c1nn(C)c2c1CCc1cnc(Nc3ccc(C(=O)NC4CCN(C)CC4)cc3OC(F)(F)F)nc1-2,IC50,[1],> 10 µM
same,IC50,[2],> 10 µM
same,IC50,[3],> 10 µM
same,IC50,[4],5.7 µM
same,IC50,[5],> 10 µM
same,IC50,[6],> 10 µM
same,IC50,[7],> 10 µM
same,IC50,[8],> 10 µM
same,IC50,[9],> 10 µM
same,IC50,[10],> 10 µM
same,IC50,[11],> 10 µM
same,IC50,[12],> 10 µM
same,IC50,[13],2.2 µM
same,IC50,[14],3.01 µM
same,IC50,[15],6.46 µM
same,IC50,[16],2.04 µM
same,IC50,[17],0.469 µM
same,IC50,[18],1.04 µM
same,IC50,[19],2.96 µM
same,IC50,[20],3.53 µM
same,IC50,[21],1.44 µM
same,IC50,[22],2.07 µM
same,IC50,[23],1.6 µM
same,IC50,[24],1.69 µM
same,IC50,[25],1.48 µM
same,IC50,[26],1.61 µM
same,IC50,[27],10 µM
same,IC50,[28],3.07 µM
same,IC50,[29],0.015 µM
same,IC50,[30],1.54 µM
same,IC50,[31],3.62 µM
same,IC50,[32],9.31 µM
same,Activity,[33],Active
same,Activity,[34],Active
same,Activity,[35],Active
same,inhibition,[36],Active
same,Activity,[37],Active
same,Activity,[38],Active
same,Activity,[39],Active
same,Activity,[40],100%
same,Cmax,[41],600 nM
same,IC50,[42],> 10 µM
